Our source for the IC50 values is patent US10233182B2, “Substituted spirocyclic inhibitors of autotaxin” (X-Rx, Inc., priority 2014, dated 2019).

Counter-ions that a name gives are not always drawn.

The term IC50 denotes the point on the concentration scale where inhibition reaches its midpoint.

In the experiment the target is Autotaxin (Homo sapiens (Human), UniProt Q13822). Nature of the experiment: Autotaxin LPC Cascade Assay. The conditions noted are these: Autotaxin 5 nM, LPC 100 μM, choline oxidase/HRP/Ampliflu Red fluorescence read-out, 2% DMSO, RT; read-out: IC50 ATX Activity. Type of experiment: biochemical. Put shortly: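 Choline liberated from LPC by autotaxin during 1 h, after a 10-min RT compound preincubation, was converted through choline oxidase/HRP to a fluorescent Ampliflu Red product.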
With `CC(C)[C@@H](NC(=O)c1cc(C(F)(F)F)ccc1F)C(=O)N1CCC2(CC1)C(=O)N(CCN(C)C)C(=O)N2c1ccc(C(=O)O)cc1` [Example 237, (R)-4-(3-(2-(Dimethylamino)ethyl)-8-(2-(2-fluoro-5-(trifluoromethyl)benzamido)-3-methylbutanoyl)-2,4-dioxo-1,3,8-triazaspiro[4.5]decan-1-yl)benzoic Acid trifluoroacetic Acid Salt], the concentration for half-maximal inhibition (IC50) was under 500 nM. Then `CC(C)[C@@H](NC(=O)c1cc(C(F)(F)F)ccc1F)C(=O)N1CCC2(CC1)C(=O)N(CCN(C)C)CN2c1ccc(C(=O)O)cc1` [Example 238, (R)-4-(3-(2-(Dimethylamino)ethyl)-8-(2-(2-fluoro-5-(trifluoromethyl)benzamido)-3-methylbutanoyl)-4-oxo-1,3,8-triazaspiro[4.5]decan-1-yl)benzoic Acid trifluoroacetic Acid Salt], with under 500 nM; and `CC(C)[C@@H](NC(=O)c1cc(C(F)(F)F)ccc1F)C(=O)N1CCC2(CC1)C(=O)N(C)C(=O)N2c1ccncc1` [Example 239, (R)-2-Fluoro-N-(3-methyl-1-(3-methyl-2,4-dioxo-1-(pyridin-4-yl)-1,3,8-triazaspiro[4.5]decan-8-yl)-1-oxobutan-2-yl)-5-(trifluoromethyl)benzamide], with under 500 nM. On to `CC(C)[C@@H](NC(=O)c1cc(C(F)(F)F)ccc1F)C(=O)N1CCC2(CC1)C(=O)N(C)C(=O)N2c1cc[n+]([O-])cc1` [Example 240, (R)-4-(8-(2-(2-Fluoro-5-(trifluoromethyl)benzamido)-3-methylbutanoy)-3-methyl-2,4-dioxo-1,3,8-triazaspiro[4.5]decan-1-yl)pyridine 1-oxide], for which the IC50 is at least 1000 nM. Turning to `COC1CCC(N2C(=O)N(C)C(=O)C23CCN(C(=O)[C@H](NC(=O)c2cc(C(F)(F)F)ccc2F)C(C)C)CC3)CC1` (stereo partly drawn) [Example 241, (R)-2-Fluoro-N-(1-(1-(4-methoxycyclohexyl)-3-methyl-2,4-dioxo-1,3,8-triazaspiro[4.5]decan-8-yl)-3-methyl-1-oxobutan-2-yl)-5-(trifluoromethyl)benzamide], the IC50 is at least 1000 nM. Turning to `CC(C)[C@@H](NC(=O)c1cc(C(F)(F)F)ccc1F)C(=O)N1CCC2(CC1)C(=O)N(C)C(=O)N2C1CCCCC1` [Example 242, (R)—N-(1-(1-Cyclohexyl-3-methyl-2,4-dioxo-1,3,8-triazaspiro[4.5]decan-8-yl)-3-methyl-1-oxobutan-2-yl)-2-fluoro-5-(trifluoromethyl)benzamide], the IC50 was under 500 nM.

Turning to `CC(C)[C@@H](NC(=O)c1cc(C(F)(F)F)ccc1F)C(=O)N1CCC2(CC1)C(=O)N(C)C(=O)N2c1ccc2ocnc2c1` [Example 245, (R)—N-(1-(1-(Benzo[d]oxazol-5-yl)-3-methyl-2,4-dioxo-1,3,8-triazaspiro[4.5]decan-8-yl)-3-methyl-1-oxobutan-2-yl)-2-fluoro-5-(trifluoromethyl)benzamide], the IC50 is under 500 nM. In the case of `Cc1nc2cc(N3C(=O)N(C)C(=O)C34CCN(C(=O)[C@H](NC(=O)c3cc(C(F)(F)F)ccc3F)C(C)C)CC4)ccc2o1` [Example 246, (R)—N-(1-(1-(2-Methylbenzo[d]oxazol-5-yl)-3-methyl-2,4-dioxo-1,3,8-triazaspiro[4.5]decan-8-yl)-3-methyl-1-oxobutan-2-yl)-2-fluoro-5-(trifluoromethyl)benzamide] it was under 500 nM.
